The values that follow are results of earlier work, collected in patent US8470873B2, “Vitamin E succinate stabilized pharmaceutical compositions, methods for the preparation and the use thereof” (Mast Therapeutics, Inc., priority 2006, dated 2013).

For series [1] the following is noted: hydrolysis.

Turning to `CC(=O)O[C@H]1C(=O)[C@@]2(C)[C@H]([C@H](OC(=O)c3ccccc3)[C@]3(O)C[C@H](OC(=O)[C@H](O)[C@@H](NC(=O)c4ccccc4)c4ccccc4)C(C)=C1C3(C)C)[C@]1(OC(C)=O)CO[C@@H]1C[C@@H]2O` [paclitaxel], the solubility in water entry was “insoluble”. On to `CC(=O)O[C@@]12CO[C@@H]1C[C@H](O)[C@@]1(C)C(=O)[C@H](O)C3=C(C)[C@@H](OC(=O)[C@H](O)[C@@H](NC(=O)OC(C)(C)C)c4ccccc4)C[C@@](O)([C@@H](OC(=O)c4ccccc4)[C@H]21)C3(C)C` [Docetaxel, (2R,3S)-N-carboxy-3-phenylisoserine,N-tert-butyl ester, 13-ester with 5β-20-epoxy-1,2α-,4,7β,10β,13α-hexahydroxytax-11-en-9-one 4-acetate 2-benzoate, trihydrate], for which the “stability in the presence of water” value in series [1] was “very unstable”.
